Results on 18 molecules are retold here after patent US5348953A, “Substituted azetidinones as anti-inflammatory and antidegenerative agents” (Merck & Co., Inc., priority 1992, dated 1994).

Test system in the first data set: not listed separately
Put plainly: Extended storage of the L-malic acid salt at rt. It is filed as physicochemical.
Conditions: not given
The source says:
NMR (CDCl3 δ from TMS): 0.9-1.0 (m, 6H), 1.0-1.1 (m, 6H), 1.2-1.4 (m, 2H), 1.6-1.95(2 m's, 6H), 2.30 (s, 3H), 2.6-2.9 (2 m's, 4H), 2.92 and 2.94 (2 s, 3H), 3.2-3.4 (m, 2H), 3.52 (br t, 2H, J=8 Hz), 4.5-4.8 (m, 3H), 5.11 (br s, 1H), 7.04 (2 d's, 1H, J=8Hz), 7.13 (br S, 4H).
The material prepared as described above in Example 20, Step A was hydrogenated as described in Example 19, Step B to afford the L-malic acid salt of 2-(S)-[2-[[2-aminoethyl]-ethylamino]-2-oxoethoxy]-3,3-diethyl-N-[1-(R)-(4- methylphenyl)butyl]-4-oxo-1-azetidinecarboxamide as an oil. […] This process could be evaluated by HPLC analysis.
For the molecule `CCC[C@@H](NC(=O)N1C(=O)C(CC)(CC)[C@@H]1OCC(=O)N(CC)CCN)c1ccc(C)cc1` [Example 20, 2-(S)-[2-[[2-Aminoethyl]-ethylamino]-2-oxoethoxy]-3,3-diethyl-N-[1-(R)-(4-methylphenyl)butyl]-4-oxo-1-azetidinecarboxamide], the stability upon storage result was “rearranged upon storage to an equilibrium mixture of isomers”.

In another data set the target is T1, Human Polymorphonuclear Leukocyte Elastase (Homo sapiens, UniProt P08246).
T1 construct: Crude extract of human polymorphonuclear leukocytes (PMN) containing elastase activity; from tissue; host or cells: human polymorphonuclear leukocytes (crude extract)
T1 sequence (P08246 30-267): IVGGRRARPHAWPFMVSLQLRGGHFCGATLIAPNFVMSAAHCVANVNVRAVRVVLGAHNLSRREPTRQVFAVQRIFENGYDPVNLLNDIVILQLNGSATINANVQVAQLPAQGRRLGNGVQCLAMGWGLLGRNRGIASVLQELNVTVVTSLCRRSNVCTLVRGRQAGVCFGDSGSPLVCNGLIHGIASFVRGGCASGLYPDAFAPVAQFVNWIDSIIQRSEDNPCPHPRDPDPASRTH
As to the kind of experiment: Inhibition of human polymorphonuclear leukocyte elastase via hydrolysis of Boc-AAPAN or Boc-AAPVN. The conditions noted are these: pH 7.5; second order rate constant for inactivation; Formula A, M n-propyl, R2 4-methyl (TABLE 1); read-out: kobs /[I]. It is filed as biochemical. As for the experimental part: Enzyme Assays for the Inhibition of Human Polymorphonuclear Leukocyte
Elastase Via Hydrolysis of
N-t-Boc-alanyl-alanyl-prolylalanine-p-nitroanilide (Boc-AAPAN) or
N-t-Boc-alanyl-prolylvaline-p-nitroanilide (Boc-AAPVN) Reagent:
0.05M TES (N-tris[hydroxymethyl]methyl-2-amino-ethanesulfonic acid) Buffer, pH 7.5.
0.2 mM Boc-AAPAN or Boc-AAPVN.
To prepare substrate, the solid was first dissolved in 10.0 ml DMSO. Buffer at pH 7.5 was then added to a final volume of 100 ml.
Crude extract of human polymorphonuclear leukocytes (PMN) containing elastase activity.
Inhibitors (azetidinones) to be tested dissolved in DMSO just before use.
To 1.0 ml of 0.2 mM Boc-AAPAN in a cuvette, 0.01-0.1 ml of DMSO with or without inhibitor was added. After mixing, a measurement was taken at 410 mμ to detect any spontaneous hydrolysis due to presence of test compound. 0.05 Milliliters of PMN extract was then added and the ΔOD/min at 410 mμ was measured and recorded. Beckman model 35 spectrophotometer was used.
Results in Table I were reported as ID50, effective dosage in micrograms per milliliter (μg/ml) for 50% inhibition of the enzyme activity 2 minutes after zero time.
Results were also expressed as Ki, the micromolar concentration of the inhibitor (μM) giving 50% of the control enzyme activity; or as ^k obs/I which is the second order rate constant in per mole per second for inactivation of the enzyme.
The elastase activity in the crude PMN extract may vary from one preparation to another. A control of each new batch is run, and the volume added in the assay procedure is adjusted according to activity.
With `CCC[C@@H](NC(=O)N1C(=O)C(CC)(CC)[C@@H]1OCC(=O)N(CC)CCN(C)C)c1ccc(C)cc1` [Y=N(Et)CH2 CH2; R5=H; R7=Me; R8=Me, 2-(S)-[2-[[2-(Dimethylamino)ethyl]ethylamino]-2-oxoethoxy]-3,3-diethyl-N-[1-(R)-(4-methylphenyl)butyl]-4-oxo-1-azetidinecarboxamide], the kinact/KI was 120000 M⁻¹ s⁻¹. `CCC[C@@H](NC(=O)N1C(=O)C(CC)(CC)[C@@H]1OCC(=O)N(CC)CCN(C(C)C)C(C)C)c1ccc(C)cc1` [Y=N(Et)CH2 CH2; R5=H; R7=iPr; R8=iPr, 2-(S)-[2-[[2-(Diisopropylamino)ethyl]ethylamino]-2-oxoethoxy]-3,3-diethyl-N-[1-(R)-(4-methylphenyl)butyl]-4-oxo-1-azetidinecarboxamide]: the kinact/KI is 189000 M⁻¹ s⁻¹. Regarding `CCC[C@@H](NC(=O)N1C(=O)C(CC)(CC)[C@@H]1OCC(=O)N(CCC)CCN(CC)CC)c1ccc(C)cc1` [Y=N(Pr)CH2 CH2; R5=H; R7=Et; R8=Et, 2-(S)-[2-[[2-(Diethylamino)ethyl]propylamino]-2-oxoethoxy]-3,3-diethyl-N-[1-(R)-(4-methylphenyl)butyl]-4-oxo-1-azetidinecarboxamide], the kinact/KI was 170000 M⁻¹ s⁻¹. With `CCC[C@@H](NC(=O)N1C(=O)C(CC)(CC)[C@@H]1OCC(=O)N(C)CCN(CCOCC)C(C)C)c1ccc(C)cc1` [2-(S)-[2-[[2-((2-Ethoxyethyl)-isopropylamino)ethyl]methylamino]-2-oxoethoxy]-3,3-diethyl-N-[1-(R)-(4-methylphenyl)butyl]-4-oxo-1-azetidinecarboxamide], the kinact/KI stood at 140000 M⁻¹ s⁻¹. With `CCC[C@@H](NC(=O)N1C(=O)C(CC)(CC)[C@@H]1OCC(=O)N(CC)CC)c1ccc(C)cc1` [Y=co-valent bond; R5=H; R7=Et; R8=Et], the kinact/KI came out at 315000 M⁻¹ s⁻¹. As to `CCC[C@@H](NC(=O)N1C(=O)C(CC)(CC)[C@@H]1OCC(=O)N(C)CCN(CC)CC)c1ccc(C)cc1` [Y=N(Me)CH2 CH2; R5=H; R7=Et; R8=Et, 2-(S)-[2-[[2-(Diethylamino)ethyl]methylamino]-2oxoethoxy]-3,3-diethyl-N-[1-(R)-(4-methylphenyl)butyl]-4-oxo-1-azetidinecarboxamide], the kinact/KI was determined as 150000 M⁻¹ s⁻¹. As for `CCC[C@@H](NC(=O)N1C(=O)C(CC)(CC)[C@@H]1OCC(=O)N(CCN(C)C)C(C)C)c1ccc(C)cc1` [Y=N(iPr)CH2 CH2; R5=H; R7=Me; R8=Me], the kinact/KI is 175000 M⁻¹ s⁻¹. Take `CCC[C@@H](NC(=O)N1C(=O)C(CC)(CC)[C@@H]1OCC(=O)N(C)CCN(CCOC)CCOC)c1ccc(C)cc1` [2-(S)-[2-[[2-(Di-(2-methoxyethyl)amino)ethyl]methylamino]-2-oxoethoxy]-3,3-diethyl-N-[1-(R)-(4-methylphenyl)butyl]-4-oxo-1-azetidinecarboxamide]: the kinact/KI is 165000 M⁻¹ s⁻¹. The same measure, in the same setting: then `CCC[C@@H](NC(=O)N1C(=O)C(CC)(CC)[C@@H]1OCC(=O)N(C)CCN(C)C)c1ccc(C)cc1` [Y=N(Me)CH2 CH2; R5=H; R7=Me; R8=Me, 2-(S)-[2-[[2-(Dimethylamino)ethyl]methylamino]-2-oxoethoxy]-3,3-diethyl-N-[1-(R)-(4-methylphenyl)butyl]-4-oxo-1-azetidinecarboxamide], with 114000 M⁻¹ s⁻¹. With `CCC[C@@H](NC(=O)N1C(=O)C(CC)(CC)[C@@H]1O[C@@H](C)C(=O)N(C)CCN(CC)CC)c1ccc(C)cc1` [Y=N(Me)CH2 CH2; R5=Me; R7=Et; R8=Et, 2-(S)-[2-[[2-(Diethylamino)ethyl]methylamino]-2-oxo-(1-(S)-methyl)ethoxy]-3,3-diethyl-N-[1-(R)-(4-methylphenyl)butyl]-4-oxo-1-azetidinecarboxamide], the kinact/KI was determined as 1.8e+06 M⁻¹ s⁻¹. Consider `CCC[C@@H](NC(=O)N1C(=O)C(CC)(CC)[C@@H]1OCC(=O)N(CC)CCN1CCOCC1)c1ccc(C)cc1` [2-(S)-[2-[[2-(Morpholin-1-yl)ethyl]ethylamino]-2oxoethoxy]-3,3-diethyl-N-[1-(R)-(4-methylphenyl)butyl]-4-oxo-1-azetidinecarboxamide], for which the kinact/KI is 245000 M⁻¹ s⁻¹.

Regarding `CCC[C@@H](NC(=O)N1C(=O)C(CC)(CC)[C@@H]1OCC(=O)N(C)CCN1C(C)CCCC1C)c1ccc(C)cc1` (stereo partly drawn) [2-(S)-[2-[[2-(2,6-dimethylpiperidin-1-yl)ethyl]-methylamino]-2-oxoethoxy]-3,3-diethyl-N-[1-(R)-(4-methylphenyl)butyl] -4-oxo-1-azetidinecarboxamide], the kinact/KI turned out to be 80000 M⁻¹ s⁻¹.

Still in this data set, the particulars now being: pH 7.5; second order rate constant; Formula A, M n-propyl, R2 3,4-methylenedioxy; read-out: kobs /[I].
As for `CCC[C@@H](NC(=O)N1C(=O)C(CC)(CC)[C@@H]1OCC(=O)N(CC)CCN(C)C)c1ccc2c(c1)OCO2` [2-(S)-[2-[[2-(Dimethylamino)ethy]-ethylamino]-2-oxoethoxy]-3,3-diethyl-N-[1-(R)-(3,4-methylenedioxyphenyl)butyl]-4-oxo-1-azetidinecarboxamide], the kinact/KI stood at 425000 M⁻¹ s⁻¹. Turning to `CCC[C@@H](NC(=O)N1C(=O)C(CC)(CC)[C@@H]1OCC(=O)N(CC)CCN(C)CCOC)c1ccc2c(c1)OCO2` [2-(S)-[2-[[2-(2-Methoxyethyl)methylamino)ethy]ethylamino]-2-oxoethoxy]-3,3-diethyl-N-[1-(R)-(3,4-methylenedioxyphenyl)butyl]-4-oxo-1-azetidine carboxamide], the kinact/KI was determined as 450000 M⁻¹ s⁻¹.

Still in this data set, the particulars now being: pH 7.5; second order rate constant; Formula A, M n-propyl, R4 piperazine amide with substituent Z; read-out: kobs /[I].
For the molecule `CCC[C@@H](NC(=O)N1C(=O)C(CC)(CC)[C@@H]1OCC(=O)N1CCN(C)CC1)c1ccc(C)cc1` [R2=4-Me; R5=H; Z=--Me, 2-(S)-[2-[2-(4-Methyl)piperazin-1-yl]-2-oxoethoxy]-3,-3-diethyl-N-[1-(R)-(4-methylphenyl)-butyl]4-oxo-1-azetidinecarboxamide], the kinact/KI was 150000 M⁻¹ s⁻¹.

For `CCC[C@@H](NC(=O)N1C(=O)C(CC)(CC)[C@@H]1OCC(=O)N1CCN(C2CC2)CC1)c1ccc2c(c1)OCO2` [2-(S)-[2-[2-(4-Cyclopropyl)piperazin-1-yl]-2-oxoethoxy]-3,3-diethyl-N-[1-(R)-(3,4-methylenedioxyphenyl)-butyl]-4-oxo-1-azetidinecarboxamide], the kinact/KI worked out at 560000 M⁻¹ s⁻¹.

The next data set concerns the target T2, HUMAN PROTEINASE 3 (Homo sapiens, UniProt P24158).
T2 sequence (P24158 28-256): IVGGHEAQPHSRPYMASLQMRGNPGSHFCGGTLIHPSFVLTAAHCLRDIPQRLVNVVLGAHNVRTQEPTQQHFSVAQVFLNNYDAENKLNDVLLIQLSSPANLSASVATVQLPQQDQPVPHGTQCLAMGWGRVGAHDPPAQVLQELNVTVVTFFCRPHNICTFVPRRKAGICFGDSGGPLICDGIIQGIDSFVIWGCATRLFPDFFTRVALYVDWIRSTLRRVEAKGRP
As to the kind of experiment: Inhibition of PR3 catalyzed hydrolysis of MeO-Succ-AAPV-pNA. It is filed as biochemical. Particulars: 45 mM TES pH 7.5, 450 mM NaCl, 10% DMSO; 0.2 mM substrate (TABLE 2); read-out: SORC (second order rate constant, kobs/I). The procedure: The PR3 catalyzed hydrolysis of MeO-Succ-AAPV-pNA was measured in a spectrophotometer monitoring absorbance at 410 n,m. The enzymatic activity was determined in 45 mM TES at pH 7.5, 450 mM NaCl and 10% DMSO. The data were fit by non-linear regression to equation 1 to obtain the initial rates. The nonlinear progress curves observed with time dependent inhibitors were fit to equation 2 to obtain the first order rate constant Kobs. Results were expressed as kobs/I which is the second order rate constant (SORC) in per mole per second for inactivation of the enzyme.
EQN 2 Y=vs *X+[(vo -vs) (1-e^(-K.sbsp.o^*X))/Ko
Kinetic constants for the inhibition of PR3 catalyzed hydrolysis of 0.2 mM MoO-succ-AAPV-pNA were determined by varying the concentration of inhibitor present in the reaction vessel.
Consider `CCC[C@@H](NC(=O)N1C(=O)C(CC)(CC)[C@@H]1OCC(=O)N(CC)CCN(C)C)c1ccc(C)cc1` [Y=N(Et)CH2 CH2; R5=H; R7=Me; R8=Me, 2-(S)-[2-[[2-(Dimethylamino)ethyl]ethylamino]-2-oxoethoxy]-3,3-diethyl-N-[1-(R)-(4-methylphenyl)butyl]-4-oxo-1-azetidinecarboxamide], for which the kinact/KI is 7900 M⁻¹ s⁻¹. In the case of `CCC[C@@H](NC(=O)N1C(=O)C(CC)(CC)[C@@H]1OCC(=O)N(CC)CCN(C)CCOC)c1ccc(C)cc1` [2-(S)-[2-[[2-((2-Methoxyethyl)-methylamino)ethyl]ethylamino]-2-oxoethoxy]-3,3-diethyl-N-[1-(R)-(4methylphenyl)butyl]-4-oxo-1-azetidinecarboxamide], the kinact/KI was 13700 M⁻¹ s⁻¹. With `CCC[C@@H](NC(=O)N1C(=O)C(CC)(CC)[C@@H]1OCC(=O)N1CCN(C)CC1)c1ccc(C)cc1` [R2=4-Me; R5=H; Z=--Me, 2-(S)-[2-[2-(4-Methyl)piperazin-1-yl]-2-oxoethoxy]-3,-3-diethyl-N-[1-(R)-(4-methylphenyl)-butyl]4-oxo-1-azetidinecarboxamide], the kinact/KI turned out to be 14800 M⁻¹ s⁻¹.
